Data taken from patent US10323019B2, “Pyrazolylaminobenzimidazole derivatives as JAK inhibitors” (Eli Lilly and Company, priority 2016, dated 2019).

Legend:
[1] = molecular target: JAK1 (Homo sapiens (Human), UniProt P23458); experiment: Human whole blood assay: pSTAT3 (JAK1) in lymphocytes, IL6 stimulated; type: cell-based; conditions: IL6, pSTAT3 in CD4+ lymphocytes
Text: Human Whole Blood Assays: Determination of pSTAT3 (JAK1) and pSTAT5 (JAK2) in Lymphocytes and Monocytes
Human whole blood (HWB) assays were developed and validated to determine the JAK1 and JAK2 selectivity of test compounds.
Dilute the test compounds, 10 points, (1:3) in DMSO 100% and a step down in PBS+0.1% BSA. Use Tofacitinib as a reference compound in each plate, as well as a maximum signal (stimulated wells) and a minimum signal (no stimulated wells) in order to normalize data. Obtain a pool of HWB from 4 different healthy donors. Plate the blood in a 96 well plate using a Tecan Evo 96w and incubate with test compounds for 1 h at RT. After this time of incubation, stimulate HWB with both IL6 (206-IL, R&D System) and GM-CSF (PHC2015, Life Technologies) for 15 more minutes. Add a viability dye (65-0865, eBiosicience) (1:1000) using a Tecan Evo 96w (5×mix).
The final concentrations in the assay are the following: 100 (μM for compounds, 50 μM for Tofacitinib, 0.1 μg/mL IL6, 0.038 μg/mL GM-CSF and 1% DMSO. Lyse and fix HWB using a Lyse/fix buffer (558049, Becton Dickinson) by adding 900 μL of lysis buffer using Tecan Evo 96w (mix 10× high speed). Incubate HWB in bath at 37° C. for 10 minutes. Centrifuge HWB at 500 G, 8 min and discard supernatant. Add cold MeOH using a Tecan Exo 96w in order to permeabilize cells. Incubate blood cells on ice during 30 min. After this, wash cells 2× using Staining buffer (554656, Becton Dickinson), spin at 3000 rpm, 2 min. discard supernatant, and add the following antibodies: Anti-Human CD4 PE, 1:100 (12-0048, eBioscience), Anti-Human CD33 eFluor® 450, 1:50 (48-0337, eBioscience), Phospho-STAT5 (Tyr694) (C71E5) Rabbit mAb, 1:100 (Alexa Fluor® 488 Conjugate) (3939, Cell Signaling) and Phospho-STAT3 (Tyr705) (D3A7) XP™ Rabbit mAb 1:200, (Alexa Fluor® 647 Conjugate) (4324, Cell Signaling). Incubate the antibodies for 1 h in dark at RT, then wash cells 2× and read on Cytometer Macsquant (Miltenyi Biotec). Gate the data on CD4+ (lymphocytes) and CD4Low CD33Hi (monocytes), to measure the fluorescence intensity from cells expressing pSTAT3 and pSTAT5, respectively. Analyze the data using FlowJo v 10 and then normalize the median of fluorescence versus maximum and minimum signal to determine the IC50s. Use Graph Pad Prism 5™ to represent the dose response curves.

[2] = test system: paw swelling in Lewis rats; experiment: Rat collagen-induced arthritis (CIA) model; type: in vivo
Procedure: Rat Collagen-Induced Arthritis (CIA) Model
This protocol uses Lewis rats (weight 150-175 grams) from Charles River. On day 0, anesthetize rats with Isoflurane. On day 1, immunize intradermally with collagen emulsion in two sites on the lower lumbar region, above the base of the tail. Dose volume is a minimum of 0.4 mL per injection site. On day 8, anesthetize rats with Isoflurane and immunize intradermally with collagen emulsion in two sites on the lower lumbar region, above the base of the tail. Enroll rats into treatment groups on day 12, based on inflammation (redness and/or swelling) in their hind paws. Randomize animals for Treatment Phase based on ankle measurement values and body weight using block randomization allocation tool. Record ankle swelling on days 1, 8, and 11 and then three times per week following enrollment up to and including the day of necropsy. Dose compounds orally once a day starting on day 12 (after randomization) up to day 25. The compounds of Examples 6 and 7 were evaluated in the protocol essentially as described above.

JAK1, sequence (P23458 whole entry): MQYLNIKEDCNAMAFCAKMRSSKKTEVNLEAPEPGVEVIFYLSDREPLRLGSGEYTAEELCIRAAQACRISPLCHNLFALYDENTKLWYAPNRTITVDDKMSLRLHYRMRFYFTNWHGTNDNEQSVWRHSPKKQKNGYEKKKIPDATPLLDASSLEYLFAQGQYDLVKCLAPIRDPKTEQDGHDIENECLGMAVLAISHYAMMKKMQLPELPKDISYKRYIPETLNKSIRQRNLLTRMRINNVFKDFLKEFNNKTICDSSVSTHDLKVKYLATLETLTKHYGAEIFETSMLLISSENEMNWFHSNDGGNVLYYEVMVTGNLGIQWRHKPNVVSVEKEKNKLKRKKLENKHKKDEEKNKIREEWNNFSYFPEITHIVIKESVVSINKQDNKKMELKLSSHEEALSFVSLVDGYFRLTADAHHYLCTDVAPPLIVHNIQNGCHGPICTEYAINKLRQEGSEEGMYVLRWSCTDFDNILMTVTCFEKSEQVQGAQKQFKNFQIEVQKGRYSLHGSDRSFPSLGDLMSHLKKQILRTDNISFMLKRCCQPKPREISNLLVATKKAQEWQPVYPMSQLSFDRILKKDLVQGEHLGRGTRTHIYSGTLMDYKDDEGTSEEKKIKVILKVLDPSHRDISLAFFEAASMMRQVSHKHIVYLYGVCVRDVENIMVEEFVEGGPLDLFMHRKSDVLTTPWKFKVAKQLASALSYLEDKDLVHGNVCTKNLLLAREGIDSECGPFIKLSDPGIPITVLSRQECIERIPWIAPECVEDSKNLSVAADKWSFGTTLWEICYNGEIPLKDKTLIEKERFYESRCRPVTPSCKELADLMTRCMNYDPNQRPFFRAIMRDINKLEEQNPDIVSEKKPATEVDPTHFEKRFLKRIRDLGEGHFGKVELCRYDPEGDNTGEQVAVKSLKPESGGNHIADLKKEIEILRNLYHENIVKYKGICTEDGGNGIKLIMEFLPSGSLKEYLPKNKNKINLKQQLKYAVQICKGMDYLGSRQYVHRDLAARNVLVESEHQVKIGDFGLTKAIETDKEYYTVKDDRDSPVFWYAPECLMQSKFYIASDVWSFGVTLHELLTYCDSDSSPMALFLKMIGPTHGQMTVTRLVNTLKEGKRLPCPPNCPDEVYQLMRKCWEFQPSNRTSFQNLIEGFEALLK

## COc1cc(Nc2cc(O[C@H]3CC[C@@H](NC[C@@H](O)C(F)(F)F)CC3)cc3c2ncn3C)nn1C [Example 6, (2R)-1,1,1-Trifluoro-3-{[cis-4-({4-[(5-methoxy-1-methyl-1H-pyrazol-3-yl)amino]-1-methyl-1H-benzimidazol-6-yl}oxy)cyclohexyl]amino}propan-2-ol]
[1]
  IC50: 3.65 ± 0.79 µM
[2]; 3 mpk oral once a day day 12 to 25, naïve rat as 100% inhibition
  Rat paw swelling % inhibition at 3 mpk: 12%
[2]; 10 mpk oral once a day day 12 to 25, naïve rat as 100% inhibition
  Rat paw swelling % inhibition at 10 mpk: 47%
[2]; 30 mpk oral once a day day 12 to 25, naïve rat as 100% inhibition
  Rat paw swelling % inhibition at 30 mpk: 79%
